The melting point is the temperature, or range, at which the solid turns liquid.

This is an account of results in patent publication US7390838B2, “Depigmenting agents” (Pfizer Inc., priority 2003, dated 2008).

For `Oc1ccc(C2CCCC2)c(O)c1` [Form A, 4-cyclopentyl resorcinol], the melting point was 65 to 66.5 °C.
